Test results taken from US8288334B2, “Peptides for wound healing” (Gene Signal International SA, priority 2010, dated 2012).

How the values were obtained:
[1] = system: human microvascular endothelial cells (HMEC); assay: in vitro angiogenesis assay (Matrigel, endothelial tube formation); type: cell-based; details: 400 μg/ml final concentration of each peptide, images at 6 h post incubation
Method: Angiogenesis of human microvascular endothelial cells (HMEC) was induced in vitro using a Matrigel assay described by Grant et al (1989, Cell, 1989; 58:933). This method is based on the differentiation of endothelial cells to form capillary structures on a Matrigel Matrix. Matrigel is prepared the Engelbreth-Holm-Swarm (EHS) mouse tumor, which represents a complex mixture of basement membrane proteins including type IV collagen, entactin, proteo-heparan sulfate and other growth factors.
Briefly, 250 μl of Matrigel were transferred to each well of a 24-well culture plate and incubated at 37° C. for 30 min to allow for the matrix solution to solidify. HMEC grown in complete growth medium EGM-2MV were harvested by trypsin, suspended in the same growth medium and 500 μl containing 70 000 cells were added on top of the solidified Matrigel in each well and in the presence or absence of protein. Cells were maintained in a humidified atmosphere air containing 5% CO2 at 37° C. for 18-24 hrs. Endothelial tube formation was observed and photographed under an inverted light microscope.
The results of the in vitro angiogenesis assay were presented in FIG. 1, using HMEC and 400 μg/ml final concentration of each peptide. Images were taken at 6 h post incubation.

[2] = system: trans-dermal wounds; assay: wound healing of trans-dermal wounds in mice after topical application; type: in vivo; details: for wound healing compared with Vehicle treated wounds: 0.5 mg/ml (5 mg/kg), mice; for % healing of wounds, day 1 post treatment: day 1, 0.5 mg/ml (5 mg/kg), vehicle 16.9%; for % healing of wounds, day 1 post treatment / % healing of wounds, day 2 post treatment / % healing of wounds, day 3 post treatment / % healing of wounds, day 4 post treatment: 5 mm punch wounds; for % healing of wounds, day 2 post treatment: day 2, 0.5 mg/ml (5 mg/kg), vehicle 21.2%; for % healing of wounds, day 3 post treatment: day 3, 0.5 mg/ml (5 mg/kg), vehicle 45.9%; for % healing of wounds, day 4 post treatment: day 4, 0.5 mg/ml (5 mg/kg), vehicle 57.5%
Method: The vehicle (Batch A) was administered by topical application at a standardized volume of 10 ml/kg for all applications. The peptides of the invention were administered by topical application at the concentration of 0.5 mg/ml in the vehicle. The protocols of treatment were as it follows: • Group 1: (Batch A, Vehicle): 1 topical application 10 minutes after wounding • Group 2: (Peptide 7, 0.5 mg/ml): 1 topical application 10 minutes after wounding • Group 3: (Peptide 10, 0.5 mg/ml): 1 topical application 10 minutes after wounding • Group 4: (Peptide 11, 0.5 mg/ml): 1 topical application 10 minutes after wounding • Group 5: (Peptide 7B, 0.5 mg/ml): 1 topical application 10 minutes after wounding. • Group 6: (Peptide 7A, 0.5 mg/ml): 1 topical application 10 minutes after wounding. • Group 7: (Peptide 7C, 0.5 mg/ml): 1 topical application 10 minutes after wounding. Wounding
Healthy female BALBC Swiss mice were anesthetized by IP injection of Ketamine-Xylazine (80 mg/kg-12 mg/kg; Ref. K-113, Sigma, France). Two trans-dermal wounds, each of 5 mm in width and about 1 to 2 mm in depth were realized in the right and the left flanks of each mouse using 5 mm punch.
At D1, and 10 min post-injury of the animals, the mice were randomized into 7 groups of 3 mice each.
All treatments were realized by topical application at the frequency of 1 topical application/day, for 4 days. Animals of group 1 were treated with the vehicle solution (Batch A). Animals of groups 2 to 7 were treated with the indicated peptide at a dose of 5 mg/kg.

[3] = system: Akt (phosphoserine 473 pAkt); assay: activation status of protein kinase B (pAkt) by western-blot in HMEC; type: cell-based, human; details: 400 μg/ml, 10 min and 30 min post incubation, immunoblot
Method: The activation status of pAkt was determined by western-blot using an anti-phosphoserine 473 pAkt antibody, and anti-GAPDH mAb as internal standard.
The status of Akt in the HMEC following incubation with either peptide 7 or peptide 10 was investigated.

[4] = system: MAPK (Erk1 and 2); assay: activation status of MAPK (pErk1/2) by western-blot in HMEC; type: cell-based, human; details: immunoblot anti-activated MAPK (pErk1/2)
Method: The activation status of MAPK was determined by western-blot using an anti-activated MAPK (pErk1/2) antibody, and anti-GAPDH mAb as internal standard.
We have also investigated the status of the mitogen activated protein kinase (MAPK), as it is well established that it represents another cascade of intracellular signaling could be implicated in the regulation of VEGF expression.

[5] = system: VEGFA protein; assay: VEGFA protein by human VEGFA sandwich ELISA in HMEC culture medium; type: cell-based; details: HMEC incubated with increasing concentrations of peptide
Method: Serum-deprived HMEC were incubated with different concentrations of peptide 7 or peptide 10 or vehicle […]. After 3 washes with ice-cold PBS, cells were suspended with the protein extraction buffer (PEB) (20 mM Tris-HCl pH 7.5, 150 mM NaCl, 1 mM EDTA, 1 mM EGTA, 1% Triton, 25 mM sodium pyrophosphate, 1 mM β-glycero-phosphate, 1 mM Na3Vo4, 1 μg/ml leupeptine, 1 μM PMSF). The protein content was measured by Bradford. VEGFA concentration in the culture medium or in the extracts was determined by human VEGFA Sandwich ELISA kit (Cell Signaling technology) according to the manufacturer's instructions.

| Sequence | in vitro angiogenesis-inducing activity [1] | wound healing compared with Vehicle treated wounds [2] | level of activated Akt relative to HMEC incubated without peptide (Control) [3] | level of activation of Erk1 and 2 (MAPK) versus Control [4] | % healing of wounds, day 1 post treatment [2] [%] | % healing of wounds, day 2 post treatment [2] [%] | % healing of wounds, day 3 post treatment [2] [%] | % healing of wounds, day 4 post treatment [2] [%] | VEGF protein within the culture medium, concentration dependence [5] |
| --- | --- | --- | --- | --- | --- | --- | --- | --- | --- |
| VSKDVCRL [Peptide 10] | strong in vitro angiogenesis-inducing activity | healed faster than the wounds treated with Vehicle | much higher level of activated Akt | not significant variations in level of activation of Erk1 and 2 | – | – | – | – | – |
| RRTTQECPVRTSLD [Peptide 7C] | – | healed faster than the wounds treated with Vehicle | – | – | 39.4 | 55.3 | 58.8 | 68.2 | – |
| TQECPVRTSLDRELDLQASL [Peptide 7] | strong in vitro angiogenesis-inducing activity | healed faster than the wounds treated with Vehicle | much higher level of activated Akt | not significant variations in level of activation of Erk1 and 2 | – | – | – | – | dose-dependent increase in VEGF protein |
| QSQKVPRQVQS [Peptide 11] | strong in vitro angiogenesis-inducing activity | healed faster than the wounds treated with Vehicle | – | – | – | – | – | – | – |
| ELDLQASL [Peptide 7B] | – | healed faster than the wounds treated with Vehicle | – | – | – | – | – | – | – |
| TQECPVRTSLD [Peptide 7A] | – | healed faster than the wounds treated with Vehicle | – | – | 27.4 | 44.7 | 45.1 | 58.8 | – |
